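Protocol summary: plate cells (96-well), add compound at 5 concentrations, incubate 48 h, interpolate endpoints linearly. GI50 = concentration required for 50% inhibition of growth.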 Calls of active or inactive are those of the source. Cut-off read from the data, not from the text of the source: active = GI50 up to about 1.1 µM and inactive = higher.
How the values were obtained:
Assay in all cases: growth of human tumour cells (NCI), 48 h
[1] = test system: OVCAR-3
[2] = test system: U-251
[3] = test system: HT-29
[4] = test system: OVCAR-4
[5] = test system: SN12C
[6] = test system: SR
[7] = test system: SW-620
[8] = test system: A549
[9] = test system: UACC-62
[10] = test system: M14
[11] = test system: Malme-3M
[12] = test system: HOP-62
[13] = test system: A498
[14] = test system: UO-31
[15] = test system: RXF 393
[16] = test system: TK-10
[17] = test system: OVCAR-5
[18] = test system: SK-OV-3
[19] = test system: HCC 2998
[20] = test system: LOX IMVI

| Structure (SMILES) | GI50 [1] | GI50 [2] | GI50 [3] | GI50 [4] | GI50 [5] | GI50 [6] | GI50 [7] | GI50 [8] | GI50 [9] | GI50 [10] | GI50 [11] | GI50 [12] | GI50 [13] | GI50 [14] | GI50 [15] | GI50 [16] | GI50 [17] | GI50 [18] | GI50 [19] | GI50 [20] |
| --- | --- | --- | --- | --- | --- | --- | --- | --- | --- | --- | --- | --- | --- | --- | --- | --- | --- | --- | --- | --- |
| O=C(NC1CCCC1=O)c1ccccc1 (stereo unspecified) | > 100 µM (inactive) | > 100 µM (inactive) | > 100 µM (inactive) | > 100 µM (inactive) | > 100 µM (inactive) | > 100 µM (inactive) | > 100 µM (inactive) | > 100 µM (inactive) | > 100 µM (inactive) | > 100 µM (inactive) | > 100 µM (inactive) | > 100 µM (inactive) | 13.7 µM (inactive) | > 100 µM (inactive) | > 100 µM (inactive) | > 100 µM (inactive) | > 100 µM (inactive) | > 100 µM (inactive) | – | – |
| CCOC(=O)NC(=S)NC(C)c1ccccc1 (stereo unspecified) | > 100 µM (inactive) | > 100 µM (inactive) | > 100 µM (inactive) | > 100 µM (inactive) | – | 56.6 µM (inactive) | > 100 µM (inactive) | > 100 µM (inactive) | > 100 µM (inactive) | > 100 µM (inactive) | > 100 µM (inactive) | > 100 µM (inactive) | – | 70.6 µM (inactive) | > 100 µM (inactive) | > 100 µM (inactive) | > 100 µM (inactive) | > 100 µM (inactive) | > 100 µM (inactive) | – |
| O=C(/C=C/c1ccc(Cl)cc1)Oc1ccc(/C=C2\CCCCC2=O)cc1 | > 100 µM (inactive) | > 100 µM (inactive) | 23 µM (inactive) | > 100 µM (inactive) | > 100 µM (inactive) | > 100 µM (inactive) | > 100 µM (inactive) | > 100 µM (inactive) | > 100 µM (inactive) | > 100 µM (inactive) | > 100 µM (inactive) | > 100 µM (inactive) | > 100 µM (inactive) | > 100 µM (inactive) | – | > 100 µM (inactive) | > 100 µM (inactive) | – | > 100 µM (inactive) | > 100 µM (inactive) |
| CCOC(=O)c1c(O)nc2cccc3c2c1-c1cccnc1S3 | 28.6 µM (inactive) | 21.3 µM (inactive) | 29.4 µM (inactive) | 33.1 µM (inactive) | 39.9 µM (inactive) | 28.6 µM (inactive) | 55.3 µM (inactive) | 18.9 µM (inactive) | 16.3 µM (inactive) | 32.7 µM (inactive) | 34 µM (inactive) | 25.5 µM (inactive) | – | 23 µM (inactive) | 11 µM (inactive) | 44.7 µM (inactive) | 24 µM (inactive) | 30.9 µM (inactive) | 50.2 µM (inactive) | 25.1 µM (inactive) |
| O=C1OC(c2ccc(Cl)cc2)=N/C1=C\c1ccccc1 | 42.3 µM (inactive) | > 100 µM (inactive) | > 100 µM (inactive) | > 100 µM (inactive) | > 100 µM (inactive) | > 100 µM (inactive) | > 100 µM (inactive) | > 100 µM (inactive) | > 100 µM (inactive) | > 100 µM (inactive) | – | > 100 µM (inactive) | – | > 100 µM (inactive) | > 100 µM (inactive) | > 100 µM (inactive) | > 100 µM (inactive) | > 100 µM (inactive) | > 100 µM (inactive) | > 100 µM (inactive) |
| Cc1ccc(S(=O)(=O)N/N=C/CN2C(=O)c3ccccc3C2=O)cc1 | – | > 100 µM (inactive) | > 100 µM (inactive) | > 100 µM (inactive) | > 100 µM (inactive) | > 100 µM (inactive) | > 100 µM (inactive) | > 100 µM (inactive) | 89.5 µM (inactive) | > 100 µM (inactive) | > 100 µM (inactive) | > 100 µM (inactive) | > 100 µM (inactive) | > 100 µM (inactive) | – | > 100 µM (inactive) | – | – | > 100 µM (inactive) | > 100 µM (inactive) |
| CC(C)(C)C1=CC(CCC(=O)Nc2ccccc2[N+](=O)[O-])=NC(S)N1 (stereo unspecified) | > 100 µM (inactive) | > 100 µM (inactive) | > 100 µM (inactive) | > 100 µM (inactive) | > 100 µM (inactive) | > 100 µM (inactive) | > 100 µM (inactive) | > 100 µM (inactive) | > 100 µM (inactive) | > 100 µM (inactive) | > 100 µM (inactive) | > 100 µM (inactive) | – | > 100 µM (inactive) | > 100 µM (inactive) | > 100 µM (inactive) | > 100 µM (inactive) | > 100 µM (inactive) | > 100 µM (inactive) | > 100 µM (inactive) |
| COC(=O)c1cc(C(=CCC[C@H]2CC[C@@]3(C)C(CCC4C3CC[C@@]3(C)C4CC[C@@H]3C(C)CCCC(C)C)C2)c2cc(Cl)c(OC(=O)c3ccccc3)c(C(=O)OC)c2)cc(Cl)c1OC(=O)c1ccccc1 (stereo partly specified) | > 10 µM (inactive) | > 10 µM (inactive) | > 10 µM (inactive) | > 10 µM (inactive) | > 10 µM (inactive) | > 10 µM (inactive) | > 10 µM (inactive) | > 10 µM (inactive) | > 10 µM (inactive) | > 10 µM (inactive) | > 10 µM (inactive) | > 10 µM (inactive) | – | > 10 µM (inactive) | > 10 µM (inactive) | > 10 µM (inactive) | > 10 µM (inactive) | > 10 µM (inactive) | > 10 µM (inactive) | > 10 µM (inactive) |
| CC(c1ccc2c(c1)CCC1C2CC2OC23CC=CC(=O)[C@]13C)C1C[C@]2(C)O[C@]2(C)[C@H](O)O1 (stereo partly specified) | 19.2 µM (inactive) | 3.61 µM (inactive) | 47.1 µM (inactive) | – | > 100 µM (inactive) | 13.1 µM (inactive) | 25.3 µM (inactive) | 16.1 µM (inactive) | 91.2 µM (inactive) | 10.7 µM (inactive) | 71.4 µM (inactive) | 0.791 µM (active) | – | 10.5 µM (inactive) | 11.7 µM (inactive) | > 100 µM (inactive) | > 100 µM (inactive) | > 100 µM (inactive) | 83.4 µM (inactive) | 20.1 µM (inactive) |
| N[C@@H](CCC(=O)NCP(=O)(O)O)C(=O)O | > 100 µM (inactive) | > 100 µM (inactive) | > 100 µM (inactive) | – | > 100 µM (inactive) | > 100 µM (inactive) | > 100 µM (inactive) | > 100 µM (inactive) | > 100 µM (inactive) | – | > 100 µM (inactive) | > 100 µM (inactive) | > 100 µM (inactive) | > 100 µM (inactive) | – | > 100 µM (inactive) | > 100 µM (inactive) | – | > 100 µM (inactive) | – |
| CC(=O)NS(=O)(=O)c1ccc(NC(=O)c2c3ccccc3nc3ccccc23)cc1 | > 100 µM (inactive) | > 100 µM (inactive) | > 100 µM (inactive) | > 100 µM (inactive) | > 100 µM (inactive) | > 100 µM (inactive) | > 100 µM (inactive) | > 100 µM (inactive) | > 100 µM (inactive) | > 100 µM (inactive) | 34.4 µM (inactive) | > 100 µM (inactive) | > 100 µM (inactive) | 30.4 µM (inactive) | – | > 100 µM (inactive) | > 100 µM (inactive) | > 100 µM (inactive) | > 100 µM (inactive) | > 100 µM (inactive) |
| CCOC(=O)C1=C(C)N(C)C23OC4(C(=O)OC)CC2c2ccccc2C1N3C4=O (stereo unspecified) | > 100 µM (inactive) | > 100 µM (inactive) | 51.9 µM (inactive) | > 100 µM (inactive) | 79.3 µM (inactive) | 16.5 µM (inactive) | 41.9 µM (inactive) | > 100 µM (inactive) | > 100 µM (inactive) | 73.8 µM (inactive) | > 100 µM (inactive) | > 100 µM (inactive) | > 100 µM (inactive) | 25.1 µM (inactive) | – | > 100 µM (inactive) | > 100 µM (inactive) | > 100 µM (inactive) | 12.4 µM (inactive) | > 100 µM (inactive) |
| CC(=O)Nc1ccc(/C=C/C(=O)c2sc(-c3nc(C)c(C(=O)/C=C/c4ccc(NC(C)=O)cc4)s3)nc2C)cc1 | > 100 µM (inactive) | > 100 µM (inactive) | > 100 µM (inactive) | > 100 µM (inactive) | > 100 µM (inactive) | > 100 µM (inactive) | > 100 µM (inactive) | > 100 µM (inactive) | > 100 µM (inactive) | > 100 µM (inactive) | > 100 µM (inactive) | > 100 µM (inactive) | – | 97.5 µM (inactive) | > 100 µM (inactive) | > 100 µM (inactive) | > 100 µM (inactive) | > 100 µM (inactive) | > 100 µM (inactive) | > 100 µM (inactive) |
| COc1ccc2c(c1)-c1nc(=O)n(CCCN(C)C)c3ccc([N+](=O)[O-])c(c13)N2 | 2.13 µM (inactive) | 1.43 µM (inactive) | 0.473 µM (active) | 1.77 µM (inactive) | 0.752 µM (active) | 0.406 µM (active) | 0.282 µM (active) | 0.469 µM (active) | 8.87 µM (inactive) | 1.08 µM (active) | 0.752 µM (active) | 0.675 µM (active) | 3.39 µM (inactive) | 0.682 µM (active) | – | 1.09 µM (active) | 1.15 µM (inactive) | 1.29 µM (inactive) | 1.06 µM (active) | 0.838 µM (active) |
| Cc1ccc(N2C(=O)/C(=C/c3ccc(N(CCC#N)CCC#N)cc3C)N=C2c2cc([N+](=O)[O-])ccc2Cl)cc1 | > 100 µM (inactive) | > 100 µM (inactive) | > 100 µM (inactive) | > 100 µM (inactive) | > 100 µM (inactive) | 58.2 µM (inactive) | > 100 µM (inactive) | > 100 µM (inactive) | > 100 µM (inactive) | > 100 µM (inactive) | > 100 µM (inactive) | > 100 µM (inactive) | > 100 µM (inactive) | > 100 µM (inactive) | – | > 100 µM (inactive) | > 100 µM (inactive) | > 100 µM (inactive) | > 100 µM (inactive) | – |

— ChEMBL document CHEMBL1201862, “PubChem BioAssay data set” (2004)
